{"source": "ChEMBL document CHEMBL4190365", "about": "“Synthesis and antiproliferative properties of new hydrophilic esters of triterpenic acids” (Eur J Med Chem, 2017)", "key": {"CCRF-CEM": {"system": "CCRF-CEM", "test": "Cytotoxicity in human CEM cells assessed as reduction in cell viability incubated for 72 hrs by calcein AM cytotoxicity assay", "type": "functional, cell-based"}, "MCF7": {"system": "MCF7", "test": "Cytotoxicity in human MCF7 cells assessed as reduction in cell viability incubated for 72 hrs by calcein AM cytotoxicity assay", "type": "functional, cell-based"}, "HeLa": {"system": "HeLa", "test": "Cytotoxicity in human HeLa cells assessed as reduction in cell viability incubated for 72 hrs by calcein AM cytotoxicity assay", "type": "functional, cell-based"}, "G-361 [1]": {"system": "G-361", "test": "Cytotoxicity in human G361 cells assessed as reduction in cell viability incubated for 72 hrs by calcein AM cytotoxicity assay", "type": "functional, cell-based"}, "BJ": {"system": "BJ", "test": "Cytotoxicity in human BJ cells assessed as reduction in cell viability incubated for 72 hrs by calcein AM cytotoxicity assay", "type": "functional, cell-based"}, "G-361 [2]": {"system": "G-361", "test": "Induction of apoptosis in human G361 cells assessed as increase in caspase3/7 activity at 10 uM using Ac-DEVD-AMC substrate incubated for 24 hrs by fluorometric assay relative to untreated control", "type": "functional"}}, "data": [{"smiles": "CC(=O)O[C@H]1CC[C@]2(C)[C@H]3CC[C@@H]4C5=C(C(C)C)C(=O)C[C@]5(C(=O)OCCN5CCCCC5)CC[C@@]4(C)[C@]3(C)CC[C@H]2C1(C)C", "note": "[listing 1 of 2 here]", "values": [{"measurement": "IC50", "setting": "CCRF-CEM; ccrf-cem", "value": 16.2, "unit": "µM"}, {"measurement": "IC50", "setting": "MCF7; Homo sapiens, MCF7, 72 h", "value": 7, "unit": "µM"}, {"measurement": "IC50", "setting": "HeLa; Homo sapiens, HeLa, 72 h", "value": 8.7, "unit": "µM"}, {"measurement": "IC50", "setting": "G-361 [1]; Homo sapiens, G-361, 72 h", "value": 7, "unit": "µM"}, {"measurement": "IC50", "setting": "BJ; Homo sapiens, BJ, 72 h", "value": 49.1, "unit": "µM"}, {"measurement": "fold change (FC)", "setting": "G-361 [2]", "value": "<=4"}]}, {"smiles": "CC(C)[C@@H]1CC[C@]2(C(=O)OCCBr)CC[C@]3(C)[C@H](CC[C@@H]4[C@@]5(C)CC[C@H](O)C(C)(C)[C@@H]5CC[C@]43C)[C@@H]12", "values": [{"measurement": "IC50", "setting": "CCRF-CEM; Homo sapiens, CCRF-CEM, 72 h", "value": 35.4, "unit": "µM"}, {"measurement": "IC50", "setting": "MCF7; Homo sapiens, MCF7, 72 h", "value": 45.9, "unit": "µM"}, {"measurement": "IC50", "setting": "HeLa; Homo sapiens, HeLa, 72 h", "value": 21.3, "unit": "µM"}, {"measurement": "IC50", "setting": "G-361 [1]; Homo sapiens, G-361, 72 h", "value": 43.1, "unit": "µM"}, {"measurement": "IC50", "setting": "BJ; Homo sapiens, BJ, 72 h", "value": 36.7, "unit": "µM"}]}, {"smiles": "C=C(C)[C@@H]1CC[C@]2(C(=O)OCCN3CCCCC3)CC[C@]3(C)[C@H](CC[C@@H]4[C@@]5(C)CC[C@H](O)C(C)(C)[C@@H]5CC[C@]43C)[C@@H]12", "note": "[listing 1 of 2 here]", "values": [{"measurement": "IC50", "setting": "CCRF-CEM; ccrf-cem", "value": 26.2, "unit": "µM"}, {"measurement": "IC50", "setting": "MCF7; Homo sapiens, MCF7, 72 h", "value": 32.8, "unit": "µM"}, {"measurement": "IC50", "setting": "HeLa; Homo sapiens, HeLa, 72 h", "value": 23.8, "unit": "µM"}, {"measurement": "IC50", "setting": "G-361 [1]; Homo sapiens, G-361, 72 h", "value": 28.6, "unit": "µM"}, {"measurement": "IC50", "setting": "BJ; Homo sapiens, BJ, 72 h", "value": 43.2, "unit": "µM"}]}, {"smiles": "CC(=O)OC[C@H]1O[C@@H](OC(=O)[C@]2(COC(C)=O)CC[C@]3(C)[C@H](CC[C@@H]4[C@@]5(C)CC[C@H](OC(C)=O)C(C)(C)[C@@H]5CC[C@]43C)[C@@H]2O)[C@H](OC(C)=O)[C@@H](OC(C)=O)[C@H]1OC(C)=O", "values": [{"measurement": "IC50", "setting": "CCRF-CEM; Homo sapiens, CCRF-CEM, 72 h", "value": "> 50", "unit": "µM"}, {"measurement": "IC50", "setting": "MCF7; Homo sapiens, MCF7, 72 h", "value": "> 50", "unit": "µM"}, {"measurement": "IC50", "setting": "HeLa; Homo sapiens, HeLa, 72 h", "value": "> 50", "unit": "µM"}, {"measurement": "IC50", "setting": "G-361 [1]; Homo sapiens, G-361, 72 h", "value": "> 50", "unit": "µM"}, {"measurement": "IC50", "setting": "BJ; Homo sapiens, BJ, 72 h", "value": "> 50", "unit": "µM"}]}, {"smiles": "C=C(C)[C@@H]1CC[C@]2(C(=O)OCCN3CCCCC3)CC[C@]3(C)[C@H](CC[C@@H]4[C@@]5(C)CC[C@H](O)C(C)(C)[C@@H]5CC[C@]43C)[C@@H]12", "note": "[listing 2 of 2 here]", "values": [{"measurement": "IC50", "setting": "CCRF-CEM; Homo sapiens, CCRF-CEM, 72 h", "value": 21.5, "unit": "µM"}, {"measurement": "IC50", "setting": "MCF7; mcf7", "value": 33.5, "unit": "µM"}, {"measurement": "IC50", "setting": "HeLa; hela", "value": 24.7, "unit": "µM"}, {"measurement": "IC50", "setting": "G-361 [1]; g-361", "value": 33.8, "unit": "µM"}, {"measurement": "IC50", "setting": "BJ; bj", "value": 45.9, "unit": "µM"}]}, {"smiles": "COCCOC(=O)[C@@]12CC[C@]3(C)[C@H](CC[C@@H]4[C@@]5(C)CC[C@H](OC(C)=O)C(C)(C)[C@@H]5CC[C@]43C)C1=C(C(C)C)C(=O)C2", "values": [{"measurement": "IC50", "setting": "CCRF-CEM; Homo sapiens, CCRF-CEM, 72 h", "value": 17.8, "unit": "µM"}, {"measurement": "IC50", "setting": "MCF7; Homo sapiens, MCF7, 72 h", "value": 42.5, "unit": "µM"}, {"measurement": "IC50", "setting": "HeLa; Homo sapiens, HeLa, 72 h", "value": "> 50", "unit": "µM"}, {"measurement": "IC50", "setting": "G-361 [1]; Homo sapiens, G-361, 72 h", "value": 19.9, "unit": "µM"}, {"measurement": "IC50", "setting": "BJ; Homo sapiens, BJ, 72 h", "value": "> 50", "unit": "µM"}]}, {"smiles": "CC(=O)O[C@H]1CC[C@]2(C)[C@H]3CC[C@@H]4C5=C(C(C)C)C(=O)C[C@]5(C(=O)OCCN5CCCCC5)CC[C@@]4(C)[C@]3(C)CC[C@H]2C1(C)C", "note": "[listing 2 of 2 here]", "values": [{"measurement": "IC50", "setting": "CCRF-CEM; Homo sapiens, CCRF-CEM, 72 h", "value": 21.2, "unit": "µM"}, {"measurement": "IC50", "setting": "MCF7; mcf7", "value": 5.8, "unit": "µM"}, {"measurement": "IC50", "setting": "HeLa; hela", "value": 9.1, "unit": "µM"}, {"measurement": "IC50", "setting": "G-361 [1]; g-361", "value": 7.2, "unit": "µM"}, {"measurement": "IC50", "setting": "BJ; bj", "value": 44.6, "unit": "µM"}]}, {"smiles": "C=C(C)[C@@H]1CC[C@]2(C(=O)OCCOC)CC[C@]3(C)[C@H](CC[C@@H]4[C@@]5(C)CC[C@H](O)C(C)(C)[C@@H]5CC[C@]43C)[C@@H]12", "values": [{"measurement": "IC50", "setting": "CCRF-CEM; Homo sapiens, CCRF-CEM, 72 h", "value": 32.8, "unit": "µM"}, {"measurement": "IC50", "setting": "MCF7; Homo sapiens, MCF7, 72 h", "value": 35.2, "unit": "µM"}, {"measurement": "IC50", "setting": "HeLa; Homo sapiens, HeLa, 72 h", "value": 32.4, "unit": "µM"}, {"measurement": "IC50", "setting": "G-361 [1]; Homo sapiens, G-361, 72 h", "value": 30.3, "unit": "µM"}, {"measurement": "IC50", "setting": "BJ; Homo sapiens, BJ, 72 h", "value": 43.7, "unit": "µM"}]}, {"smiles": "CC(=O)OC[C@H]1O[C@@H](OC(=O)[C@]23CC[C@@H](C(C)C)[C@@H]2[C@H]2CC[C@@H]4[C@@]5(C)CC[C@H](O)C(C)(C)[C@@H]5CC[C@@]4(C)[C@]2(C)CC3)[C@H](OC(C)=O)[C@@H](OC(C)=O)[C@@H]1OC(C)=O", "values": [{"measurement": "IC50", "setting": "CCRF-CEM; Homo sapiens, CCRF-CEM, 72 h", "value": 18.6, "unit": "µM"}, {"measurement": "IC50", "setting": "MCF7; Homo sapiens, MCF7, 72 h", "value": 13.9, "unit": "µM"}, {"measurement": "IC50", "setting": "HeLa; Homo sapiens, HeLa, 72 h", "value": 15.6, "unit": "µM"}, {"measurement": "IC50", "setting": "G-361 [1]; Homo sapiens, G-361, 72 h", "value": 8.1, "unit": "µM"}, {"measurement": "IC50", "setting": "BJ; Homo sapiens, BJ, 72 h", "value": "> 50", "unit": "µM"}]}, {"smiles": "CC(=O)OC[C@@]1(C(=O)OCCN2CCCCC2)CC[C@]2(C)[C@H](CC[C@@H]3[C@@]4(C)CC[C@H](OC(C)=O)C(C)(C)[C@@H]4CC[C@]32C)[C@@H]1O", "values": [{"measurement": "IC50", "setting": "CCRF-CEM; Homo sapiens, CCRF-CEM, 72 h", "value": "> 50", "unit": "µM"}, {"measurement": "IC50", "setting": "MCF7; Homo sapiens, MCF7, 72 h", "value": 27.2, "unit": "µM"}, {"measurement": "IC50", "setting": "HeLa; Homo sapiens, HeLa, 72 h", "value": "> 50", "unit": "µM"}, {"measurement": "IC50", "setting": "G-361 [1]; Homo sapiens, G-361, 72 h", "value": "> 50", "unit": "µM"}, {"measurement": "IC50", "setting": "BJ; Homo sapiens, BJ, 72 h", "value": "> 50", "unit": "µM"}]}]}
